According to publication PMC10895668, “Lead Optimization of the 5-Phenylpyrazolopyrimidinone NPD-2975 toward Compounds with Improved Antitrypanosomal Efficacy” (Journal of Medicinal Chemistry, 2024):
Read-outs that look alike come from different tables or passages of the source.

Tests used:
[1] = tested on: peritoneal mouse macrophages (PMM); test: Cytotoxicity on peritoneal mouse macrophages; format: cell-based; conditions: Macrophage, n ≥ 2
T. b. brucei = test: Trypanosoma susceptibility assay (resazurin viability); format: cell-based; conditions: for IC50: Trypanosoma brucei
Experimental: (§1) The antiparasitic assays were carried out exactly as described in Blaazer et al.([39]) Metabolic stability, pharmacokinetics, acute mouse infection model results were collected as described previously.[21] All animal experiments were conducted in compliance with institutional guidelines and following approval by the Ethical Committee of the University of Antwerp, Belgium [UA-ECD 2014–96]. Female Swiss mice (15–20 g), were purchased from Janvier (Le Genest Saint Isle, France). […] Animals were treated PO b.i.d. for 5 days at 25 and 50 mg/kg 31c. For the SL-RNA qPCR experiments blood was collected sublingually and subjected to erythrocyte lysis before extracting RNA with the QIAamp RNA Blood Mini kit (Qiagen). […] Small pieces of fat, brain, and spleen tissue were excised and immediately transferred to RNA later (Qiagen) and incubated overnight at 4 °C. RNA extraction was performed as instructed in the RNeasy Mini Plus Kit manual (Qiagen). The one-step SensiFAST SYBR Hi-Rox PCR kit (Bioline USA Inc., via Gentaur Belgium BVBA, Kampenhout, Belgium) was used for the PCR with the following forward and reverse primers, respectively 5′-[…]-3′ and 5′-[…]-3′. An initial activation step of 10 min at 45 °C and 10 min at 95 °C was used, followed by the amplification step for 40 cycles (15 s at 95 °C, 15 s 50 °C and 15 s at 60 °C). At last, the melting curves were generated with an increment of 0.3 °C (15 s at 95 °C 1 min at 45 °C and 15 s at 95 °C). The PCR was run on the Step One Plus real-time PCR system (Applied Biosystems, California, USA). An additional qPCR was performed with the mouse housekeeping gene Eef2 to confirm successful RNA extraction.
In vitro experiments were carried out with the bloodstream form of the T. b. brucei Squib strain (suramin-sensitive). Parasites were routinely cultured in T25 culture flasks containing 10 mL of HMI-9 medium (Invitrogen) supplemented with 10% heat-inactivated fetal bovine serum (Life Technologies) and 2.5 μg/mL Geneticin (Life Technologies). MRC-5SV2 cells were cultured in MEM + Earl’s salts-medium, supplemented with 2 mM L-glutamine, 16.5 mM NaHCO3, and 5% inactivated fetal calf serum. All cultures and assays were conducted at 37 °C under an atmosphere of 5% CO2.
(§2) Parasites were counted in a KOVA counting chamber and diluted to 1.5 × 10^4 parasites/well of a 96-well plate (200 μL total volume), upon which the prediluted test compounds were added. Drug exposure covered a 72 h period without renewal of the culture medium. After 3 days of incubation, parasite growth was assessed fluorimetrically after addition of 50 μL of resazurin per well. After 6 h (T. b. rhodesiense) or 24 h (T. b. brucei) at 37 °C, fluorescence is measured (λex 550 nm, λem 590 nm). Parasite viability was assessed using the resazurin viability assay, and drug activity was calculated as percentage viability reduction compared to nontreated controls.

[2] = In vivo pharmacokinetics in non-infected mice
Experimental: as §1
Blood drops were sampled before treatment and at 0.5, 1, 2, 4, 6, and 24 h after PO dosage; samples after IP dosage were identical with an additional time point of 0.25 h. The blood drops were analyzed adopting the dry blood spot technique and analysis by LC-MS^2. Briefly, blood was collected from the retro-orbital complex using capillary tubes and dropped (15 μL) on WhatmanFTADMPK cards (B). The spots were left to air-dry at room temperature for at least 2 h. For analysis, a 6 mm disk was punched out and extracted in 75:25 MeCN/water containing the internal standard tolbutamide. The amount of parent compound was determined using liquid chromatography (UPLC) (Waters Aquity) coupled with tandem quadrupole mass spectrometry (MS^2) (Waters Xevo) equipped with an electrospray ionization (ESI) interface and operated in multiple reaction monitoring mode. Standard curves in whole blood were made for calibration and validation. Standard PK parameters were determined using Topfit software.
Brain tissue of the animals was collected on ice at autopsy 24 h post-treatment (50 mg/kg oral dose) after perfusion. […] The tissues were immediately homogenized using a GentleMacs tissue homogenizer. The tissue samples were subjected to protein precipitation by adding MeCN, followed by a centrifugation step at 4 °C for 5 min at 21, 130 g. The supernatant was further diluted in 75:25 MeCN/water for LC-MS^2 analysis as described above.

MRC-5 cells = test: MRC-5SV2 cytotoxicity assay; format: cell-based; conditions: Homo sapiens, MRC5, 72 h; cytotoxicity, 3 days incubation; mean ± SD, n ≥ 2; read-out: pIC50 MRC-5 (converted)
Experimental: The synthesized analogues were tested against T. b. brucei, and inhibition of MRC-5 (human lung fibroblasts MRC-5SV40) cell proliferation was included as cytotoxicity control. […] Analogue 17 with an amino group instead of the carbonyl group was prepared to improve solubility for further modification. […] In vitro experiments were carried out with the bloodstream form of the T. b. brucei Squib strain (suramin-sensitive). […] All cultures and assays were conducted at 37 °C under an atmosphere of 5% CO2. […] Cell growth is compared to untreated-control wells (100% cell growth) and medium-control wells (0% cell growth). […] After 4 h at 37 °C, fluorescence is measured (λex 550 nm, λem 590 nm). The results are expressed as % reduction in cell growth/viability compared to control wells and an IC50 and an IC90 (50 and 90% inhibitory concentrations) are determined.

T. b. rhodesiense = test: Trypanosoma susceptibility assay (resazurin viability); format: cell-based; conditions: Trypanosoma brucei, mean ± SD, n ≥ 2, read-out: pIC50 T. b. rhodesiense (converted)
Experimental: The antiparasitic assays were carried out exactly as described in Blaazer et al.([39]) Metabolic stability, pharmacokinetics, acute mouse infection model results were collected as described previously.[21] All animal experiments were conducted in compliance with institutional guidelines and following approval by the Ethical Committee of the University of Antwerp, Belgium [UA-ECD 2014–96]. Female Swiss mice (15–20 g), were purchased from Janvier (Le Genest Saint Isle, France). […] Animals were treated PO b.i.d. for 5 days at 25 and 50 mg/kg 31c. For the SL-RNA qPCR experiments blood was collected sublingually and subjected to erythrocyte lysis before extracting RNA with the QIAamp RNA Blood Mini kit (Qiagen). […]
as §2, with “Drug exposure covered a 72 h period without renewal of the culture medium.” left out

[3] = female, Swiss, mouse, in vivo, ip, 10 mg/kg
[4] = female, Swiss, mouse, in vivo, po, 50 mg/kg

CC(C)(C)c1n[nH]c2c(=O)[nH]c(-c3ccc(F)cc3)nc12 [31c, 3-(tert-Butyl)-5-(4-fluorophenyl)-1,6-dihydro-7H-pyrazolo[4,3-d]pyrimidin-7-one]
IC50 [1]: > 63100 nM
improved potency compared to 2 (T. b. brucei; T. brucei, versus compound 2): 4 fold
IC50 (T. b. brucei; 72 h, T. b. brucei Squib bloodstream form, 72 h exposure, mean ± SD, n ≥ 2, read-out: pIC50 T. brucei (converted)): 15.8 nM
IC50 (T. b. brucei; read-out: IC50 against T. b. brucei): 17 nM
blood concentration exceeding the in vitro IC50 against T. brucei ([2]; both routes (10 mg/kg IP, 50 mg/kg PO)): more than 300 fold
AUC(0-t) at 24 h [2, 3]: 2470 ± 1560 ng·h/mL
Cl [2, 3]: 326 ± 148
Cmax at 24 h [2, 3]: 5.05 ± 1.51 µM
Tmax at 24 h [2, 3]: 0.5 ± 0.3 h
half-life at 24 h [2, 3]: 1.56 ± 0.5 h
AUC0–6 h higher compared with 2 [2, 4]: more than 7 fold
AUC(0-t) at 24 h [2, 4]: 43400 ng·h/mL
Cl [2, 4]: 11 ± 1
Cmax at 24 h [2, 4]: 10.9 ± 1.69 µM
Tmax at 24 h [2, 4]: 6 h
concentration at 24 h [2, 4]: 0.296 µM
half-life at 24 h [2, 4]: 3.51 ± 1.34 h
IC50 (MRC-5 cells): > 63100 nM
IC50 (T. b. rhodesiense): 10 nM
